Laboratory results taken from article PMC7997640, “Potential anti-COVID-19 agents, cepharanthine and nelfinavir, and their usage for combination treatment” (iScience, 2021).
Like-named read-outs stand apart in the source and are kept apart here.

Assays:
SARS-CoV-2 [1] = tested on: SARS-CoV-2
in vitro = conditions: African green monkey
SARS-CoV-2 [2] = assay: microbe, parasite or virus in culture; conditions: for IC90: read-out: SARS-CoV-2 RNA IC90
SARS-CoV-2 [3] = format: cell-based
SARS-CoV-2 [4] = format: cell-based; remark: listed apart in the source
SARS-CoV-2 [5] = assay: Chemical screening of 306 approved drugs by cytopathic effect assay; format: cell-based
SARS-CoV-2 [6] = format: cell-based; conditions: VeroE6/TMPRSS2, 48 hr
SARS-CoV-2 [7] = assay: Virus-cell binding assay at 4°C; format: cell-based
SARS-CoV-2 [8] = assay: Viral N protein immunofluorescence in Calu-3 cells; format: cell-based
SARS-CoV-2 main protease = SARS-CoV-2 main protease (Severe acute respiratory syndrome coronavirus 2, UniProt P0DTD1); assay: biochemical
SARS-CoV-2 [9] = assay: microbe, parasite or virus in culture; format: cell-based
[10] = expected in human lung
[11] = patients, 500 mg NFV orally; ref Markowitz et al., 1998; read-out: serum Cmax; cited from earlier work
SARS-CoV = conditions: ref Liu et al., 2005, Wu et al., 2004, Yamamoto et al.; cited from earlier work
clinical = conditions: human, po, 500 mg
[12] = Severe acute respiratory syndrome coronavirus 2, VeroE6/TMPRSS2, 24 h, read-out: SARS-CoV-2 RNA IC50
[13] = Severe acute respiratory syndrome coronavirus 2, VeroE6/TMPRSS2, 24 h
[14] = Severe acute respiratory syndrome coronavirus 2, read-out: IC50 (Hill function fit)
[15] = VeroE6/TMPRSS2, 24 hr, LPV 16 μM, CLQ 16 μM, RDV 20 μM, CEP 8 μM, NFV 4 μM
[16] = secreted viral RNA 24 hr, RDV 15 μM, CLQ 15 μM, CEP 8.2 μM, NFV 4 μM
[17] = Table S1, Single-drug treatment

Row | Compound | antiviral activity on viral RNA (SARS-CoV-2 [1]) | CC50 (in vitro) | IC50 (SARS-CoV-2 [2]; [12]) | IC90 (SARS-CoV-2 [2]; [13]) | IC50 (SARS-CoV-2 [2]; [14]) | screening outcome (hit = cell survival more than 20-fold of the control) (SARS-CoV-2 [5]) | virus-induced cytopathicity (SARS-CoV-2 [6]) | N protein expression (SARS-CoV-2 [3]; [15]) | m, slope of the dose-response curve (Hill coefficient) (SARS-CoV-2 [1]; [17]) | other results
1 | NC(=O)c1nc(F)c[nH]c1=O [FPV, favipiravir] | negligible antiviral activity | > 64 µM | > 64 µM | > 64 µM |  |  |  |  |  | 
2 | CCC(CC)COC(=O)[C@H](C)N[P@](=O)(OC[C@H]1O[C@@](C#N)(c2ccc3c(N)ncnn23)[C@H](O)[C@@H]1O)Oc1ccccc1 [RDV, Remdesivir] | inhibited viral RNA | > 64 µM | 1.58 µM | 3.24 µM | 1.58 µM |  |  |  |  | N protein expression (SARS-CoV-2 [3]): significantly reduced N protein expression; step of life cycle inhibited (time-of-addition) (SARS-CoV-2 [4]): negligible effect on virus entry; m, slope of the dose-response curve (Hill coefficient) (SARS-CoV-2 [1]): 3.048
3 | CCOC(=O)O[C@]1(C(=O)OCCl)CC[C@H]2[C@@H]3CCC4=CC(=O)C=C[C@]4(C)[C@H]3[C@@H](O)C[C@@]21C [Loteprednol] |  |  |  |  |  | identified as hits |  |  |  | 
4 | CO[C@H]1C[C@@H]2CC[C@@H](C)[C@@](O)(O2)C(=O)C(=O)N2CCCC[C@H]2C(=O)O[C@H]([C@H](C)C[C@@H]2CC[C@@H](O)[C@H](OC)C2)CC(=O)[C@H](C)/C=C(\C)[C@@H](O)[C@@H](OC)C(=O)[C@H](C)C[C@H](C)/C=C/C=C/C=C/1C [Rapamycin] |  |  |  |  |  | identified as hits |  |  |  | 
5 | CCN(CC)CCCC(C)Nc1ccnc2cc(Cl)ccc12 (stereo not drawn) [CLQ, chloroquine] | inhibited viral RNA | > 64 µM | 1.31 µM | 3.97 µM | 1.31 µM |  | reduced virus-induced cytopathicity | significantly reduced N protein expression | 1.984 | step of life cycle inhibited (time-of-addition) (SARS-CoV-2 [4]; [16]): activity in the early stages of infection; SARS-CoV-2 binding to cells (cell-bound viral RNA) (SARS-CoV-2 [7]): negligible effect
6 | heparin |  |  |  |  |  |  |  |  |  | SARS-CoV-2 binding to cells (cell-bound viral RNA) (SARS-CoV-2 [7]): significantly blocked SARS-CoV-2 particle attachment
7 | Cc1c(O)cccc1C(=O)N[C@@H](CSc1ccccc1)[C@H](O)CN1C[C@H]2CCCC[C@H]2C[C@H]1C(=O)NC(C)(C)C [NFV, nelfinavir] |  | > 64 µM | 0.77 µM | 1.18 µM | 0.765 µM | identified as hits | greatest anti-cytopathic activity | significantly reduced N protein expression | 5.079 | SARS-CoV-2 proliferation in Calu-3 cells (N protein) (SARS-CoV-2 [8]): inhibit SARS-CoV-2 proliferation; step of life cycle inhibited (time-of-addition) (SARS-CoV-2 [4]; [16]): clearly inhibited the post-entry process; IC50 (SARS-CoV-2 main protease): 37 µM; IC50 (SARS-CoV-2 [9]; [14]): 1.32 µM; m, slope of the dose-response curve (Hill coefficient) (SARS-CoV-2 [9]; Table S1, Combination treatment experiment): 4.043; viral RNA, % of untreated control (SARS-CoV-2 [9]; […], CEP 3.20 μM, NFV 2.24 μM, alone or combined): 5.8%; viral RNA levels, % of the untreated control infections (SARS-CoV-2 [1]): 0.001–0.01%; window (CC50/IC50) (SARS-CoV-2 [1]): > 70 fold; Degradation rate k [10]: 4.89 day⁻¹; Cmax [11]: 6.9 µM; replication of SARS-CoV (SARS-CoV): inhibit the replication; Cmax (clinical): 9.32 µM
8 | Cc1cccc(C)c1OCC(=O)N[C@@H](Cc1ccccc1)[C@@H](O)C[C@H](Cc1ccccc1)NC(=O)[C@H](C(C)C)N1CCCNC1=O [LPV, lopinavir] | inhibited viral RNA | 54.9 µM | 3.07 µM | 5.43 µM | 3.61 µM | identified as hits | reduced virus-induced cytopathicity | significantly reduced N protein expression | 3.852 | 
